Data taken from paper PMC11415492 (Nature Communications, 2024).
pEC50, pIC50, pKi: −log10 of the molar value. Values joined by “and” are separate entries in the source; they are usually repeats but may differ in a detail not shown here. Equal values may be shown once. Where a name gives a salt, the structure may show the parent alone. Read-outs that look alike come from different tables or passages of the source.

How the values were obtained:
hKOR [1] = target: T1, hKOR (Homo sapiens, UniProt P41145); test: KOR [35S]GTPγS agonist assay (commercial); type: biochemical; details: agonist, n = 1
T1 construct: expressed in transfected cells; host or cells: HEK-293T, transient (PEI)
T1 sequence (P41145 whole entry): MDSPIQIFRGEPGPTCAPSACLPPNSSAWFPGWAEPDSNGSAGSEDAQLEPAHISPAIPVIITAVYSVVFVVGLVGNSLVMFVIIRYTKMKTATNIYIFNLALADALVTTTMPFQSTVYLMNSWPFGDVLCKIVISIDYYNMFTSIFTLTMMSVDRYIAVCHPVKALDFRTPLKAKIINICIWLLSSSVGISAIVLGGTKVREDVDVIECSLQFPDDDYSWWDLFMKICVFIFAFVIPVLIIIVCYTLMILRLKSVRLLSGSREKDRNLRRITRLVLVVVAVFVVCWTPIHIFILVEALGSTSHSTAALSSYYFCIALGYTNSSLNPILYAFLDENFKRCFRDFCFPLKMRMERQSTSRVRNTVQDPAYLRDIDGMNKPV

rKOR [2] = target: T2, rKOR (Rattus norvegicus, UniProt P34975); test: G protein activation BRET assay (GαoB); type: cell-based; details: for pEC50: HEK-293T
T2 construct: signal peptide (N); expressed in transfected cells; host or cells: HEK-293T, transient (PEI)
T2 sequence (P34975 whole entry): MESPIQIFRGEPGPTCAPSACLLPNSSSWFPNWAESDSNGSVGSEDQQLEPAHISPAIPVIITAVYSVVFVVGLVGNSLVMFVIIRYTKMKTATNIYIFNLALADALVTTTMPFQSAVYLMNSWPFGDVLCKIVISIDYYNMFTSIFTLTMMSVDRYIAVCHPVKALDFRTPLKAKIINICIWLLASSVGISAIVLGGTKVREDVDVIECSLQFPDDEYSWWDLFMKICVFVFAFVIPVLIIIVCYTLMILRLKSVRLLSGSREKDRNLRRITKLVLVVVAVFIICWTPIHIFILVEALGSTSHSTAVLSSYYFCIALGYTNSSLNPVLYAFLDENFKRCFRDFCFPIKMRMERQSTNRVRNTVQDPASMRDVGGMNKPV

hKOR [3] = target: T1, hKOR; test: G protein activation BRET assay; type: cell-based; details: for response, Fig. S5b concentration-response point (replicates): Log [Drug]
mMOR = target: T3, mMOR (Mus musculus, UniProt P42866); test: G protein activation BRET assay; type: cell-based; details: for Fig. S5h concentration-response data point: Log [Drug], single replicate values
T3 construct: expressed in transfected cells; host or cells: HEK-293T, transient (PEI)
T3 sequence (P42866 whole entry): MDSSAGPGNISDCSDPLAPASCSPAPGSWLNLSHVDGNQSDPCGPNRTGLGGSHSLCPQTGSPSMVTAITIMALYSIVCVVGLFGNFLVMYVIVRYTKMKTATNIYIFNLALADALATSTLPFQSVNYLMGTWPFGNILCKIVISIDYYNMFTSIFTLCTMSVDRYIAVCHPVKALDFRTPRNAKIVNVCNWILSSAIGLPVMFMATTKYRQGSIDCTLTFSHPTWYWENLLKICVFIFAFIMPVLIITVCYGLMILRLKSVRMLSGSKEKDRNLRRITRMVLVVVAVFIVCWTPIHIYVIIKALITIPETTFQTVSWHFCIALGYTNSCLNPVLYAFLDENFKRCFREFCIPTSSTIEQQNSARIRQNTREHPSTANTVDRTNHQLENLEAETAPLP

rKOR [4] = target: T2, rKOR; test: Nanobody Nb33 sensor recruitment BRET assay; type: cell-based; details: for response, Fig. S5c concentration-response point (replicates): Log [Drug]
hSERT = target: T4, hSERT (Homo sapiens, UniProt P31645); test: hSERT inhibition assay (APP+ fluorescence uptake); type: cell-based
T4 construct: expressed in transfected cells
T4 sequence (P31645 whole entry): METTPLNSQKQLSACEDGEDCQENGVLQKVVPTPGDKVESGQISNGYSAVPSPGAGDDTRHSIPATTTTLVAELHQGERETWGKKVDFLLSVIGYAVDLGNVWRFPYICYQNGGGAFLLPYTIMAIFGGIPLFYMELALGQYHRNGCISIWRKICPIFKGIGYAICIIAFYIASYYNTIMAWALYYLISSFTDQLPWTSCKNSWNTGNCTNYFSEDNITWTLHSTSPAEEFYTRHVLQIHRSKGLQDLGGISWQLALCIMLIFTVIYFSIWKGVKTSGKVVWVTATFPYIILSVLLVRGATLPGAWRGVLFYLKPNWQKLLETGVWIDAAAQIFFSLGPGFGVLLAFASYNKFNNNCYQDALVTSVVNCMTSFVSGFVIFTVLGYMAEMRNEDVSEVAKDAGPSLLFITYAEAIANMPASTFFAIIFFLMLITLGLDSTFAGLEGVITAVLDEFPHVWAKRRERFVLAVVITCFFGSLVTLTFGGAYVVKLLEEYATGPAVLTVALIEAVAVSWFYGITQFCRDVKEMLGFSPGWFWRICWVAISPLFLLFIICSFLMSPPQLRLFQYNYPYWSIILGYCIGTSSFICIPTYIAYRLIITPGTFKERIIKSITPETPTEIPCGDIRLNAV
Experimental: Stably transfected hSERT-HEK cellular cultures were maintained in Dulbecco’s Minimal Essential Medium (DMEM) with GlutaMAX (Gibco-Thermo Fisher Scientific, Waltham, MA) with the following additions: 10% (v/v) Fetal Bovine Serum (FBS, Atlanta Biologicals, Flowery Branch, GA), 100 U/mL Penicillin 10 μg/mL Streptomycin (Gibco-Thermo Fisher Scientific, Waltham, MA), and 500 μg/mL Geneticin (G418) (Sigma Aldrich, St. Louis, MO). Singly transfected cells were seeded at a density of 0.09 × 10^6 cells/well in poly-D-Lysine (Sigma Aldrich, St. Louis, MO) coated white solid-bottom 96-well plates (Greiner Bio-One, Kremsmünster, Austria). Cells were grown for 44 h in aqueous media at 37 °C under 5% CO2 atmosphere. […] A final solution of 120 μL of PBS was finally added to all corresponding wells for cell maintenance before measuring fluorescence uptake (BioTek H1MF plate reader (BioTek Instruments, Winooski, VT), APP+ excitation and emission wavelengths 436 and 500 nm). Recorded inhibitor values were first subtracted from vehicular values to quantify the respective fluorescence uptake. Data were analyzed using the dose-response-inhibitor nonlinear curve fitting model (log[inhibitor] vs response (four parameters) in Graphpad Prism 10 (Graphpad Software, La Jolla, CA).

[5] = target: T5, human nicotinic acetylcholine receptor (nAChR α3β4) (Homo sapiens, UniProt P30926+P32297); test: nAChR α3β4 inhibition, electrophysiology (commercial); type: cell-based
T5 construct: purchased contracted research organization (eurofinsdiscoveryservices.com) item CYL8057IF2
T5 sequence (P32297 32-505): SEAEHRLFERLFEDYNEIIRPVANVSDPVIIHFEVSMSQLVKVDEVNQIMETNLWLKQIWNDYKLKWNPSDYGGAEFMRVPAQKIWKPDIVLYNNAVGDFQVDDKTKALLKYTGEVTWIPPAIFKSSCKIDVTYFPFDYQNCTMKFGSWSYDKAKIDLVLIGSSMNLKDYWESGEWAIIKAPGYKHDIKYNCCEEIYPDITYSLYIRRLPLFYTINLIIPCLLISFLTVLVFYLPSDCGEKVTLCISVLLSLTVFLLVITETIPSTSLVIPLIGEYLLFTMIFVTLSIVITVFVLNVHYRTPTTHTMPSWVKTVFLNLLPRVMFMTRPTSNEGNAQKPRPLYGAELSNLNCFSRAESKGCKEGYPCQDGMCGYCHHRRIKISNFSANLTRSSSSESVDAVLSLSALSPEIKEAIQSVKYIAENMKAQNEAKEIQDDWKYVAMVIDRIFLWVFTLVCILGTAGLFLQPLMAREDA
T5 sequence (P30926 22-498): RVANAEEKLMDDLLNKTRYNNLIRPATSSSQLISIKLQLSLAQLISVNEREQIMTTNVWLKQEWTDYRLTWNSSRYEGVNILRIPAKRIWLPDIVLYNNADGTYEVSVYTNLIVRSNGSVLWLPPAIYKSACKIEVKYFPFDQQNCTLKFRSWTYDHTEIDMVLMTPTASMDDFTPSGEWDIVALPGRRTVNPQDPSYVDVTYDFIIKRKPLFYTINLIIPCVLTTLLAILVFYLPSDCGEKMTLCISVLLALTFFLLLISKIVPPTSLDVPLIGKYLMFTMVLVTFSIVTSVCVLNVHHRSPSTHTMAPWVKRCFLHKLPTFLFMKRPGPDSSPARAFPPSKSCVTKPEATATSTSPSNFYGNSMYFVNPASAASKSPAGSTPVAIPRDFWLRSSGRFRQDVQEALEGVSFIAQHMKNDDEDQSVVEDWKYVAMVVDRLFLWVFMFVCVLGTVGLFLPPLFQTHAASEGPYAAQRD

rat NMDA receptor = test: rat NMDA radioligand displacement ([3H]MK-801); type: binding
hNOP = target: T6, hNOP (Homo sapiens, UniProt P41146); test: human NOP (Orphanin ORL1) radioligand displacement; type: binding
T6 construct: purchased contracted research organization (eurofinsdiscoveryservices.com) item 260600
T6 sequence (P41146 whole entry): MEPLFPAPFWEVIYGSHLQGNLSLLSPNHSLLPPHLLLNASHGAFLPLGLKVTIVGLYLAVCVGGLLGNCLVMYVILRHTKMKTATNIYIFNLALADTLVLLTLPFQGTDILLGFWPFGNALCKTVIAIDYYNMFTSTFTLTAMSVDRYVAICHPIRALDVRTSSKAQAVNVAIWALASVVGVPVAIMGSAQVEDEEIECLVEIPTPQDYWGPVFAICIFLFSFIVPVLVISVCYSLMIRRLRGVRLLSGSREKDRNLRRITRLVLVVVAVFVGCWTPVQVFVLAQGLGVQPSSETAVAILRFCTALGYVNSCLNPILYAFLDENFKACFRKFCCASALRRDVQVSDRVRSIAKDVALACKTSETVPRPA

[6] = tested on: adult human primary ventricular myocytes; test: Cardiotoxicity (pro-arrhythmia) assay in adult human primary cardiomyocytes; type: cell-based; details: for pro-arrhythmic potential: 0.1–10 µM
male Fisher F-344 rats = test: Morphine intravenous self-administration; type: in vivo, rat; details: for self-administration per session, individual animals (Fig. S9a): 40 mg/kg
hERG potassium channel = target: T7, hERG potassium channel (Homo sapiens, UniProt Q12809); details: lit. value; cited from earlier work
T7 construct: purchased contracted research organization (eurofinsdiscoveryservices.com) item 4094
T7 sequence (Q12809 whole entry): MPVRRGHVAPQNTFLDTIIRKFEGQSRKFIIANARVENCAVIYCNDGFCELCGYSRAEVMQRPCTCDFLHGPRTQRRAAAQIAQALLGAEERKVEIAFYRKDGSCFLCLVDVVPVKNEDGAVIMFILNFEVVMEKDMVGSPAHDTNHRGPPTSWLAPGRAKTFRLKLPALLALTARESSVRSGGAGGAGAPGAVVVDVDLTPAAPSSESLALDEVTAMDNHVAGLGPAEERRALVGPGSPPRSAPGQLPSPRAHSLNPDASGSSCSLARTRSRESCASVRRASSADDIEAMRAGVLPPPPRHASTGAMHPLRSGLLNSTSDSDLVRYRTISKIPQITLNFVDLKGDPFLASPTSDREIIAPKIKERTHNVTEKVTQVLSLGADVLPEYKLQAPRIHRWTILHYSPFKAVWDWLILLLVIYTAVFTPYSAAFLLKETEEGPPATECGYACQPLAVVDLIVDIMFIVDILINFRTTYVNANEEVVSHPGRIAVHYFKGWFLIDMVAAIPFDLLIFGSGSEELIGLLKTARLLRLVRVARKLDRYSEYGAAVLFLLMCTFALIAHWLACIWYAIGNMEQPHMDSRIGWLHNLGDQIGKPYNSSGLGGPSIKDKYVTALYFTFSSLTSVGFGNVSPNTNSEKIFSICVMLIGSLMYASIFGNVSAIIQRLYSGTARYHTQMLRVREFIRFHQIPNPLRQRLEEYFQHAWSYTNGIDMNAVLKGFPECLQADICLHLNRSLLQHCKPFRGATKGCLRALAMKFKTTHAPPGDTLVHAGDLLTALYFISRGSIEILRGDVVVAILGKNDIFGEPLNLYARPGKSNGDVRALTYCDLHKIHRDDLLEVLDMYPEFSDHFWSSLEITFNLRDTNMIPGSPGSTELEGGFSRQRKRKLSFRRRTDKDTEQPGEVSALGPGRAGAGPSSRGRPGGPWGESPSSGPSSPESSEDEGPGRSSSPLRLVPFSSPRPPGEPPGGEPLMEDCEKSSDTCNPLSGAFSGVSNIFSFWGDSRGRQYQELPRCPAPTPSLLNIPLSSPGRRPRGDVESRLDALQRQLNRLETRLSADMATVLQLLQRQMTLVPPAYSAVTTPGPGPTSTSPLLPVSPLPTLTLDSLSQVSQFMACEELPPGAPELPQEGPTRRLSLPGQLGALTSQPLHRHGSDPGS

[7] = 180 mg oral dose; cited from earlier work
in vitro = details: human, pH 7.4

## CCC1CC2CC3c4[nH]c5ccc(O)cc5c4CCN(C2)C13 (centres unmarked) [Noribogaine, Noribogaine hydrochloride]
hKOR [1]
  Emax: 73%
hKOR [1]; (95% CI)
  pEC50: 5.08
rKOR [2]
  pEC50: 5.21
rKOR [2]; (95% CI)
  pEC50: 5.20
rKOR [2]; normalized to Emax of U-50,488
  Emax: 52%
hKOR [3]; M = -4
  response, Fig. S5b concentration-response point (replicates): 63.4148 and 52.568 and 43.4303 and -3.268 and 15.5992 and -3.578 and 46.3729 and 68.2306 and 65.5059
hKOR [3]; M = -5
  response, Fig. S5b concentration-response point (replicates): 44.129 and 7.591 and 58.3969 and -7.944 and -3.52 and -16.5221 and 8.861 and 66.0772 and 47.0286
hKOR [3]; M = -6
  response, Fig. S5b concentration-response point (replicates): 20.3519 and 3.61 and -1.914 and -21.4522 and 4.635 and -8.327 and 2.307 and 50.686 and 6.38
hKOR [3]; M = -7
  response, Fig. S5b concentration-response point (replicates): -3.613 and 22.2417 and 10.4815 and -11.7203 and -7.426 and -8.634 and -0.3969 and 6.635 and -33.8028
hKOR [3]; M = -8
  response, Fig. S5b concentration-response point (replicates): -6.02 and -4.0285 and -3.934 and -14.0445 and 2.721 and -12.2464 and 2.029 and -16.111 and -2.683
hKOR [3]; M = -9
  response, Fig. S5b concentration-response point (replicates): 5.431 and -20.2939 and -8.392 and 0.6992 and -6.586 and -12.3198 and -2.633 and 36.0973 and 2.925
hKOR [3]; M = -10
  response, Fig. S5b concentration-response point (replicates): 4.023 and 14.614 and -14.1911 and -26.8111 and -11.2252 and 12.0579 and -0.5811 and 6.156 and 9.5717
hKOR [3]; M = -11
  response, Fig. S5b concentration-response point (replicates): -10.3398 and -7.2943 and -10.3521 and -20.7885 and 4.252 and -10.5358 and -2.026 and -5.486 and -20.474
hKOR [3]; normalized to Emax of U-50,488
  Emax: 46%
mMOR
  Emax: 19%
mMOR; (95% CI)
  pEC50: 5.04
mMOR; M = -4
  Fig. S5h concentration-response data point: 24.8885 and 26.6264 and 27.7428 and 17.4963 and -8.212 and 30.4244 and 10.6283 and 6.222 and 21.9832
mMOR; M = -5
  Fig. S5h concentration-response data point: 8.23 and 17.0849 and 17.7259 and 22.4715 and 22.153 and 9.821 and 3.187 and 0.3566 and 4.1
mMOR; M = -6
  Fig. S5h concentration-response data point: 4.604 and 7.207 and -5.062 and 6.292 and -3.562 and -1.853 and 2.1627 and 6.968 and -3.361
mMOR; M = -7
  Fig. S5h concentration-response data point: 5.516 and -3.12 and 0.3751 and -1.392 and 9.617 and 0.0554 and -3.657 and -2.623 and -4.7725
mMOR; M = -8
  Fig. S5h concentration-response data point: 2.807 and -9.751 and -4.108 and 4.434 and 1.624 and 11.894 and 1.215 and 7.908 and -0.803
mMOR; M = -9
  Fig. S5h concentration-response data point: 3.672 and 14.0917 and -2.71 and 1.993 and 2.042 and -8.571 and -5.966 and 3.235 and -0.5438
mMOR; M = -10
  Fig. S5h concentration-response data point: 5.694 and 7.45 and -0.02465 and -4.39 and 8.693 and -12.0081 and -1.935 and 3.572 and 2.108
mMOR; M = -11
  Fig. S5h concentration-response data point: 0.01325 and 7.439 and 24.776 and 1.616 and -6.541 and -6.127 and 16.1632 and 10.3257 and 7.821
rKOR [4]; M = -4
  response, Fig. S5c concentration-response point (replicates): 0.6832 and -2.533 and 1.849 and 9.706 and 9.178 and 4.549 and -7.153 and 2.312 and 4.8409
rKOR [4]; M = -5
  response, Fig. S5c concentration-response point (replicates): 9.7994 and 6.733 and 8.435 and 9.706 and 10.7702 and 15.0341 and 0.9856 and -0.8825 and 4.299
rKOR [4]; M = -6
  response, Fig. S5c concentration-response point (replicates): 9.626 and 6.623 and 8.559 and 3.312 and 9.163 and -0.7272 and 9.077 and 6.531 and 9.714
rKOR [4]; M = -7
  response, Fig. S5c concentration-response point (replicates): 8.087 and 5.264 and 16.9405 and 8.98 and 10.0186 and 11.1512 and 4.05 and 6.477 and 19.1494
rKOR [4]; M = -8
  response, Fig. S5c concentration-response point (replicates): 10.1716 and 9.452 and 9.651 and 4.904 and -0.3201 and 10.6815 and 14.8896 and 2.949 and 7.869
rKOR [4]; M = -9
  response, Fig. S5c concentration-response point (replicates): 2.743 and 3.189 and 8.9111 and 2.535 and 1.402 and 3.813 and 4.639 and -0.2876 and 6.5008
rKOR [4]; M = -10
  response, Fig. S5c concentration-response point (replicates): 4.986 and 10.7522 and 12.8464 and -2.314 and -2.554 and 4.868 and 5.9 and 1.688 and 15.6928
rKOR [4]; M = -11
  response, Fig. S5c concentration-response point (replicates): 8.177 and 6.107 and 7.7052 and 7.712 and 6.632 and -6.719 and 26.9849 and 11.0819 and 18.0666
rKOR [4]; at 100 µM
  % effect at 100 µM: < 4%
hSERT
  Emax: 104%
[5]
  pIC50: 5.30
[5]; electrophysiology, n = 1, (95% CI)
  pIC50: 5.30
Rat NMDA receptor
  pIC50: 4.38
Rat NMDA receptor; 1.00E-04 M
  NMDA receptor radioligand displacement, concentration-response point (Fig. S3c): 73
Rat NMDA receptor; 1.00E-05 M
  NMDA receptor radioligand displacement, concentration-response point (Fig. S3c): 14
Rat NMDA receptor; 1.00E-06 M
  NMDA receptor radioligand displacement, concentration-response point (Fig. S3c): 5
Rat NMDA receptor; 2.15E-05 M
  NMDA receptor radioligand displacement, concentration-response point (Fig. S3c): 32
Rat NMDA receptor; 4.64E-05 M
  NMDA receptor radioligand displacement, concentration-response point (Fig. S3c): 53
Rat NMDA receptor; [3H]MK-801 displacement, n = 1
  pIC50: 4.37
hNOP; at 10 µM, n = 1
  % displacement at 10 µM: < 0%
hNOP; up to 10 µM
  binding affinity for nociceptin receptor (ORL-1/NOP): No binding affinity
[6]
  concentration with greater than 20% incidence of arrhythmia-associated events (considerable pro-arrhythmia risk): ≥ 1000 nM
  pro-arrhythmic potential: pro-arrhythmic potential by causing after-contractions and contraction failures
[6]; 0.1 (µM)
  Alternans %: 0%
  Contraction Failure %: 0%
  STV %: 0%
[6]; 0.1 (µM), incidence of cells
  After-contraction %: 16.67%
[6]; listed as noribogaine
  pro-arrhythmic potential: concentration-dependent pro-arrhythmia risk
[6]; 1 (µM)
  After-contraction %: 33.33%
  Alternans %: 0%
  Contraction Failure %: 0%
  STV %: 0%
[6]; 3.16 (µM)
  After-contraction %: 50%
  Alternans %: 0%
  Contraction Failure %: 16.67%
  STV %: 0%
[6]; 10 (µM)
  After-contraction %: 50%
  Alternans %: 0%
  Contraction Failure %: 16.67%
  STV %: 0%
Male Fisher F-344 rats; 40 mg/kg i.p.
  effect on morphine self-administration: partial, but statistically significant, suppression of morphine intake on days 2 and 3, returning to pre-treatment level of morphine intake on day 5
Male Fisher F-344 rats; session 1
  self-administration per session, individual animals (Fig. S9a): 0 (2×) and 4 (2×) and 8 and 6 (2×) and 2
Male Fisher F-344 rats; session 2
  self-administration per session, individual animals (Fig. S9a): 7 and 19 and 24 and 41 and 27 (2×) and 15 (2×)
Male Fisher F-344 rats; session 3
  self-administration per session, individual animals (Fig. S9a): 17 and 21 and 50 and 28
Male Fisher F-344 rats; session 5
  self-administration per session, individual animals (Fig. S9a): 49 and 40 and 50 (2×) and 36 (2×) and 31 and 21
Male Fisher F-344 rats; session 6
  self-administration per session, individual animals (Fig. S9a): 50 (5×) and 42 and 26 and 19
Male Fisher F-344 rats; session 7
  self-administration per session, individual animals (Fig. S9a): 29 (2×) and 15 and 50 (4×) and 17
Male Fisher F-344 rats; session 8
  self-administration per session, individual animals (Fig. S9a): 30 (2×) and 50 (4×) and 28 and 26
Male Fisher F-344 rats; session 9
  self-administration per session, individual animals (Fig. S9a): 26 and 35 and 50 (3×) and 22 and 28 and 13
Male Fisher F-344 rats; session 10
  self-administration per session, individual animals (Fig. S9a): 34 and 25 and 50 (3×) and 20 and 41 and 14
Male Fisher F-344 rats; session 11
  self-administration per session, individual animals (Fig. S9a): 33 and 19 and 50 (3×) and 9 and 26 and 3
Male Fisher F-344 rats; session 12
  self-administration per session, individual animals (Fig. S9a): 50 (5×) and 14 and 40 and 19
Male Fisher F-344 rats; session 13
  self-administration per session, individual animals (Fig. S9a): 50 (3×) and 23 and 33 and 28
Male Fisher F-344 rats; session 14
  self-administration per session, individual animals (Fig. S9a): 50 (3×) and 21 and 38 and 17
Male Fisher F-344 rats; session 15
  self-administration per session, individual animals (Fig. S9a): 50
hERG potassium channel
  pKi: 5.70
[7]
  QT prolongation: > 500 ms
In vitro
  recovery at 4 h, 5 µM: 75%
In vitro; plasma
  fraction unbound: 0.401
